Data from patent publication US9371336B2, “Compounds for treating spinal muscular atrophy” (PTC Therapeutics Inc., priority 2012, dated 2016).

Key:
[1] = system: SMN2 minigene mRNA (SMN2-A minigene construct); assay: SMN2 minigene mRNA splicing RT-qPCR assay in cultured cells; format: cell-based, human; settings: for inclusion of exon 7 of SMN2 into mRNA / SMN2 minigene FL mRNA relative to vehicle control: HEK293H cells with SMN2-A minigene, 24 hr; for inclusion of exon 7 of SMN2 into mRNA: relative to untreated cells (FIG. 3); for SMN2 minigene FL mRNA relative to vehicle control: rising concentrations, RT-qPCR (FIG. 3); for EC (1.5-fold): Homo sapiens, HEK293-H, HEK293H cells stably transfected with SMN2-A minigene, 24 hours, 7-point concentration data, concentration giving 1.5-fold SMN2 full length mRNA relative to vehicle-treated cells, read-out: EC1.5x for production of full length SMN2 mRNA
How it was run: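 Full-length SMN2 minigene mRNA, measured by exon 7/luciferase-specific RT-qPCR that excludes endogenous SMN1/SMN2, was normalized to GAPDH and expressed relative to vehicle-treated cells via modified ΔΔCt. Stably transfected HEK293H cells received compound (7-point, 3.16-fold series, duplicates) for 24 h at 37 °C.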

Smn protein = Smn protein assay (HTRF) in cultured cells (SMA patient fibroblasts GM03813); format: cell-based, human; settings: for Smn protein expression: SMA Type 1 patient fibroblast cells, 48 hour, SMN HTRF assay (FIG. 6); for EC1.5x for Smn protein expression: SMA patient fibroblast cells (GM03813), HTRF, 7-point concentration data, concentration producing 1.5 times Smn protein vs DMSO vehicle control; for EC1.5x for Smn protein expression / maximum fold (Fold) increase of Smn protein: 48 hours; for maximum fold (Fold) increase of Smn protein: SMA patient fibroblast cells, 7-point concentration curve, relative to vehicle control
How it was run: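 Smn level is expressed as fold over vehicle, from blank-corrected ΔF of the 665/620 nm HTRF ratio. Readout used anti-SMN d2 and kryptate antibodies on RIPA lysates. GM03813 SMA fibroblasts had 48 h exposure at 37° C to seven 3.16-fold compound dilutions, run in triplicate.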

## CN1CCN(c2ccc3cc(-c4nc5c(Cl)cccc5s4)c(=O)oc3n2)CC1 [Cpd 5, 3-(4-chloro-1,3-benzothiazol-2-yl)-7-(4-methylpiperazin-1-yl)-2H-pyrano[2,3-b]pyridin-2-one]
[1]
  inclusion of exon 7 of SMN2 into mRNA: fully restored exon 7 inclusion
  SMN2 minigene FL mRNA relative to vehicle control: increased SMN2 minigene FL mRNA at low concentrations
  EC (1.5-fold): 0.1 to 0.3 µM
Smn protein
  Smn protein expression: dose dependent increase in Smn protein expression
  EC1.5x for Smn protein expression: *** (an EC1.5× between >0.3 μM and ≦1 μM is indicated by three stars (***))
  maximum fold (Fold) increase of Smn protein: **** (a fold increase between >1.5 and ≦1.65 is indicated by four stars (****))

## Cc1ccc2nc(-c3cc4ccc(N5CCN(C)CC5)nc4oc3=O)cn2c1 [Cpd 27, 3-(6-methylimidazo[1,2-a]pyridin-2-yl)-7-(4-methylpiperazin-1-yl)-2H-pyrano[2,3-b]pyridin-2-one]
[1]
  inclusion of exon 7 of SMN2 into mRNA: fully restored exon 7 inclusion
  SMN2 minigene FL mRNA relative to vehicle control: increased SMN2 minigene FL mRNA at low concentrations
  EC (1.5-fold): 0.1 to 0.3 µM
Smn protein
  Smn protein expression: dose dependent increase in Smn protein expression
  EC1.5x for Smn protein expression: ** (an EC1.5× between >1 and ≦3 μM is indicated by two stars (**))
  maximum fold (Fold) increase of Smn protein: **** (a fold increase between >1.5 and ≦1.65 is indicated by four stars (****))
